One may read the IC50 as the concentration that inhibits the measured activity by half.

Some results are limits rather than exact numbers.

The record followed here is PMC8198038, “In Vitro Evaluation of Antiproliferative Properties of Novel Organotin(IV) Carboxylate Compounds with Propanoic Acid Derivatives on a Panel of Human Cancer Cell Lines” (Molecules, 2021).

Test [1] relates to PC-3 (human prostate cancer) cells. In words: MTT assay, PC-3 cells. Format: cell-based. The conditions noted are these: read-out: IC50 (mean ± SD), PC-3, MTT. Here is the method:
(§1) The cell proliferations of ligand precursors and organotin(IV) compounds were evaluated with the aid of MTT (3-(4,5-dimethylthiazol-2-yl)-2,5-12 diphenyltetrazolium bromide) and CV (crystal violet) assays toward prostate (PC-3), colon (HT-29), breast (MCF-7) and hepatic (HepG2) cancer cell lines, and normal mouse embryonic fibroblast cells (NIH 3T3). The cells were cultivated in T75 flasks containing 10 mL of complete medium and kept at 37 °C and 5% CO2 […]. The nutrient medium was RPMI-1640 (PAA Laboratories) supplemented with 10% foetal bovine serum, L-glutamine, and penicillin/streptomycin (Sigma). Afterward, 5.000 cells of PC-3 and MCF-7 and 1.500 cells of HT-29 and HepG2 were transferred into 96 well-plates and used for MTT and CV assays. For microscopy investigations as well as FACS measurements (except for ROS/RNS measurements), MCF-7 cells were seeded overnight in 6-well plates (150,000 cells/well) in […] of complete medium. […] In all assays, control cells were untreated MCF-7 cells incubated for the same time period as treated cells and treated with appropriate reagents in various assays. BD FACS Aria III was used for flow cytometry experiments and results were analysed using BD FACSDiva software (BD Biosciences, Heidelberg, Germany) and Cyflogic (V 1.2.1, CyFlo Ltd., Turku, Finland). A fluorescence microscope Invitrogen EVOS FL 2 Auto 2 Cell Imaging System was used for visualization of the cells as well as for detection of fluorescence in the cells.
(§2) Ligands HL1‒HL3, organotin(IV) compounds, and cisplatin were investigated in 9 different concentrations (100, 50, 10, 5, 1, 0.5, 0.1, 0.05, 0.01 μM). Using the complete medium, each stock solution of the test compounds (20 mM in DMSO) was diluted to obtain the working solution. The final concentration of DMSO never overstepped 0.5%, which is non-toxic to the cells. Three technical replicates were performed for each concentration. The treated cells were incubated for 48 h at 37 °C under 5% CO2 and the viability of the cells was determined using MTT and CV assays according to the literature procedure. The IC50 values, defined as 50% inhibitory concentration, were calculated with a four-parameter logistic function and presented in a mean. All experiments were performed in triplicate.
For orientation: Formazan colour is commonly taken as a measure of viable cells.

Test [2] shares this test system. The test is described as follows: CV (crystal violet) assay, PC-3 cells. The format is cell-based. The conditions noted are these: read-out: IC50 (mean ± SD), PC-3, CV. The method, then:
as §1, §2

Test [3] concerns HepG2 (hepatocellular cancer) cells. In words: CV (crystal violet) assay, HepG2 cells. The format is cell-based, human. The conditions noted are these: read-out: IC50 (mean ± SD), HepG2, CV. Here is the method:
as §1, §2

In test [4] the test system is HT-29 (human colorectal adenocarcinoma) cells. In words: MTT assay, HT-29 cells. Format: cell-based. Conditions: read-out: IC50 (mean ± SD), HT-29, MTT. The method, then:
as §1, §2

Test [5] has as its system PC-3, HT-29, MCF-7 and HepG2 tumour cell lines. The test is described as follows: MTT and CV assays, panel of four tumour cell lines. Format: cell-based, human. The conditions noted are these: applied concentrations up to 100 µM, 48 h. The method, then: The in vitro anticancer activity of ligand precursors, HL1–HL3 and its organotin(IV) compounds was tested in a panel of four tumour cell lines: PC3 (prostate cancer cells), HT-29 (colon cancer cells), MCF-7 (breast cancer cells), and HepG2 (hepatic cancer cells), as well as on normal NIH3T3 cells (mouse embryonic fibroblast) using MTT and CV assays after 48 h of incubation.
The cell proliferations of ligand precursors and organotin(IV) compounds were evaluated with the aid of MTT (3-(4,5-dimethylthiazol-2-yl)-2,5-12 diphenyltetrazolium bromide) and CV (crystal violet) assays toward prostate (PC-3), colon (HT-29), breast (MCF-7) and hepatic (HepG2) cancer cell lines, and normal mouse embryonic fibroblast cells (NIH 3T3). The cells were cultivated in T75 flasks containing 10 mL of complete medium and kept at 37 °C and 5% CO2 […]. The nutrient medium was RPMI-1640 (PAA Laboratories) supplemented with 10% foetal bovine serum, L-glutamine, and penicillin/streptomycin (Sigma). Afterward, 5.000 cells of PC-3 and MCF-7 and 1.500 cells of HT-29 and HepG2 were transferred into 96 well-plates and used for MTT and CV assays. For microscopy investigations as well as FACS measurements (except for ROS/RNS measurements), MCF-7 cells were seeded overnight in 6-well plates (150,000 cells/well) in […] of complete medium. […] BD FACS Aria III was used for flow cytometry experiments and results were analysed using BD FACSDiva software (BD Biosciences, Heidelberg, Germany) and Cyflogic (V 1.2.1, CyFlo Ltd., Turku, Finland). A fluorescence microscope Invitrogen EVOS FL 2 Auto 2 Cell Imaging System was used for visualization of the cells as well as for detection of fluorescence in the cells.
Ligands HL1‒HL3, organotin(IV) compounds, and cisplatin were investigated in 9 different concentrations (100, 50, 10, 5, 1, 0.5, 0.1, 0.05, 0.01 μM). […] The treated cells were incubated for 48 h at 37 °C under 5% CO2 and the viability of the cells was determined using MTT and CV assays according to the literature procedure. […]

Test [6] deals with NIH3T3 (normal mouse embryonic fibroblast) cells. In words: CV (crystal violet) assay, NIH3T3 cells. Format: cell-based. The conditions noted are these: read-out: IC50 (mean ± SD), NIH3T3, CV. Here is the method:
as §1, §2

Test [7] relates to HepG2 (hepatocellular cancer) cells. In words: MTT assay, HepG2 cells. The format is cell-based, human. Conditions: read-out: IC50 (mean ± SD), HepG2, MTT. Here is the method: as §1, §2
Test [8] has as its system MCF-7 (breast cancer) cells. In words: MTT assay, MCF-7 cells. The format is cell-based, human. Conditions: for IC50: read-out: IC50 (mean ± SD), MCF-7, MTT. Here is the method:
as §1, §2

The test system of test [9] is NIH3T3 (normal mouse embryonic fibroblast) cells. In words: MTT assay, NIH3T3 cells. Format: cell-based. The conditions noted are these: read-out: IC50 (mean ± SD), NIH3T3, MTT. The method, then:
as §1, §2

Test [10] relates to MCF-7 (breast cancer) cells. The test is described as follows: CV (crystal violet) assay, MCF-7 cells. The format is cell-based, human. Conditions: read-out: IC50 (mean ± SD), MCF-7, CV. Here is the method: as §1, §2
Test [11] has as its system HT-29 (human colorectal adenocarcinoma) cells. The test is described as follows: CV (crystal violet) assay, HT-29 cells. Format: cell-based. The conditions noted are these: read-out: IC50 (mean ± SD), HT-29, CV. Here is the method:
as §1, §2

Setting [12] is: Homo sapiens, PC-3, MTT assay, 48 h incubation.
Setting [13] is: Homo sapiens, PC-3, CV assay, 48 h incubation.
Setting [14] is: Homo sapiens, HepG2, CV assay, 48 h incubation.
Where [15] appears, read: Homo sapiens, HT-29, MTT assay, 48 h incubation.
The mark [16] stands for this setting: Mus musculus, NIH3T3, CV assay, 48 h incubation, normal cells.
Setting [17] is: Homo sapiens, HepG2, MTT assay, 48 h incubation.
Where [18] appears, read: Homo sapiens, MCF7, MTT assay, 48 h incubation.
[19] abbreviates: Mus musculus, NIH3T3, MTT assay, 48 h incubation, normal cells.
[20] abbreviates: Homo sapiens, MCF7, CV assay, 48 h incubation.
Setting [21] is: Homo sapiens, HT-29, CV assay, 48 h incubation.
Setting [22] is: CV assay, 48 h incubation, normal cells.
Setting [23] is: MTT assay, 48 h incubation, normal cells.

In the case of `O=C(O)CCc1nc(-c2ccccc2)c(-c2ccccc2)o1` [HL1, 3-(4,5-diphenyloxazol-2-yl)propanoic acid, reference compound], the IC50 in test [1] (Homo sapiens, PC-3, 48 h) is more than 100000 nM; in test [2] (Homo sapiens, PC-3, 48 h) it was more than 100000 nM; in test [3] (Homo sapiens, HepG2, 48 h), more than 100000 nM; in [4] (Homo sapiens, HT-29, 48 h), more than 100000 nM; in test [6] (Mus musculus, NIH3T3, 48 h), more than 100000 nM; in [7] (Homo sapiens, HepG2, 48 h) it was more than 100000 nM. For the same compound, the IC50 in [8] (Homo sapiens, MCF7, 48 h) is more than 100000 nM; in test [9] (Mus musculus, NIH3T3, 48 h), more than 100000 nM; in test [10] (Homo sapiens, MCF7, 48 h) it was more than 100000 nM; in test [11] (Homo sapiens, HT-29, 48 h), more than 100000 nM. For the same compound, the “influence on cell proliferation” value in [5] was “did not affect cell proliferation in any cancer cell line tested”.

With `COc1ccc(-c2nc(CCC(=O)O)oc2-c2ccc(OC)cc2)cc1` [HL2, 3-(4,5-bis(4-Methoxylphenyl)oxazol-2-yl)propanoic acid], the IC50 in test [1] (setting [12]), in [2] (setting [13]), in [3] (setting [14]), in [4] (setting [15]), in [6] (setting [16]) and in [7] (setting [17]) was more than 100000 nM each time. In addition, the half-maximal inhibitory concentration (IC50) in test [8] (setting [18]), in test [9] (setting [19]), in test [10] (setting [20]) and in test [11] (setting [21]) was more than 100000 nM in each case. For the same compound, the “influence on cell proliferation” value in [5] is on record as “did not affect cell proliferation in any cancer cell line tested”.

For `O=C(O)CCN1C(=O)NC(c2ccccc2)(c2ccccc2)C1=O` [HL3, 3-(2,5-Dioxo-4,4-diphenylimidazolidin-1-yl)propanoic acid], the IC50 in test [1] (setting [12]), in test [2] (setting [13]), in test [3] (setting [14]), in test [4] (setting [15]), in test [6] (setting [16]) and in test [7] (setting [17]) was more than 100000 nM each time. Also, the half-maximal inhibitory concentration (IC50) in [8] (setting [18]), in [9] (setting [19]), in [10] (setting [20]) and in [11] (setting [21]) was more than 100000 nM each time. In addition, in test [5], the “influence on cell proliferation” value is “did not affect cell proliferation in any cancer cell line tested”.

As for `O=C(CCN1C(=O)NC(c2ccccc2)(c2ccccc2)C1=O)[O][Sn]([c]1ccccc1)([c]1ccccc1)[c]1ccccc1` [Ph3SnL3, (3-(2,5-Dioxo-4,4-diphenylimidazolidin-1-yl)propanoato)triphenyltin(IV)], the IC50 was found to be 211 ± 42 nM in [1] (MTT assay, 48 h incubation); 458 ± 29 nM in test [2] (CV assay, 48 h incubation); 255 ± 85 nM in [3] (CV assay, 48 h incubation); 218 ± 15 nM in [4] (MTT assay, 48 h incubation); 2090 ± 1030 nM in test [6] (setting [22]); 100 ± 30 nM in test [7] (MTT assay, 48 h incubation). The IC50 in test [8] (MTT assay, 48 h incubation) worked out at 131 ± 17 nM; in [9] (setting [23]), 1820 ± 990 nM; in test [10] (CV assay, 48 h incubation), 219 ± 16 nM; in [11] (CV assay, 48 h incubation), 471 ± 48 nM. Also, the “fold higher activity compared to cisplatin against MCF-7” value in test [8] (Table 1 IC50 values, 48 h) is “up to 120 fold”.

With “(3-(4,5-bis(4-Methoxylphenyl)oxazol-2-yl)propanoato)triphenyltin(IV) [Ph3SnL2]”, the IC50 in test [1] (MTT assay, 48 h incubation) worked out at 575 ± 43 nM; in test [2] (CV assay, 48 h incubation) it was 785 ± 18 nM; in [3] (CV assay, 48 h incubation), 628 ± 165 nM; in test [4] (MTT assay, 48 h incubation), 453 ± 63 nM; in test [6] (setting [22]) it was 2610 ± 520 nM; in test [7] (MTT assay, 48 h incubation), 223 ± 84 nM. Besides, the half-inhibitory concentration (IC50) in test [8] (MTT assay, 48 h incubation) came to 309 ± 59 nM; in [9] (setting [23]), 1990 ± 1120 nM; in [10] (CV assay, 48 h incubation), 543 ± 26 nM; in test [11] (CV assay, 48 h incubation) it was 727 ± 18 nM.
